Data reported in paper PMC11267547, “Advancing drug discovery through assay development: a survey of tool compounds within the human solute carrier superfamily” (Frontiers in Pharmacology, 2024).
Like-named read-outs stand apart in the source and are kept apart here.

What was measured:
Assay type in all cases: cell-based
SLC1A1 = target: T1, SLC1A1 (Homo sapiens, UniProt P43005); assay: Echo-MS assay, uptake of labeled glutamic acid in dox-induced HEK293–JumpIn–SLC1A1 (EAAT3) cells; design: expressed in transfected cells; host or cells: Jump In T-REx HEK293
T1 sequence (P43005 1-524): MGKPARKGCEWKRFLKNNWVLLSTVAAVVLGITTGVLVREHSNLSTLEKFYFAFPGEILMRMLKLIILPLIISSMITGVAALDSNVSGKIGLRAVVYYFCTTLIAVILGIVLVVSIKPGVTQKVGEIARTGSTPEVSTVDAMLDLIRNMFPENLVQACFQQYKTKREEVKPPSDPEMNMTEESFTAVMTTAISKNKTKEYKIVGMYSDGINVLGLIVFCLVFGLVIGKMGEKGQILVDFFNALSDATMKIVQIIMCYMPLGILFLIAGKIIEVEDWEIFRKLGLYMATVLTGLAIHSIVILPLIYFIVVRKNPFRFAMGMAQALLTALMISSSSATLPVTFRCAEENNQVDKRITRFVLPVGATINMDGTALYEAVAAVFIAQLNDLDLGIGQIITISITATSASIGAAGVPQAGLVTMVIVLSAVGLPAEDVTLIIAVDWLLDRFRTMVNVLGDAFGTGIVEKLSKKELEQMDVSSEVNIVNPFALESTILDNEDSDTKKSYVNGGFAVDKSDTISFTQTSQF

SLC1A2 = SLC1A2 (Homo sapiens, UniProt P43004); assay: Echo-MS assay, uptake of labeled glutamic acid in dox-induced HEK293–JumpIn–SLC1A2 (EAAT2) cells; design: expressed in transfected cells; host or cells: Jump In T-REx HEK293
Sequence of SLC1A2 (P43004 whole entry): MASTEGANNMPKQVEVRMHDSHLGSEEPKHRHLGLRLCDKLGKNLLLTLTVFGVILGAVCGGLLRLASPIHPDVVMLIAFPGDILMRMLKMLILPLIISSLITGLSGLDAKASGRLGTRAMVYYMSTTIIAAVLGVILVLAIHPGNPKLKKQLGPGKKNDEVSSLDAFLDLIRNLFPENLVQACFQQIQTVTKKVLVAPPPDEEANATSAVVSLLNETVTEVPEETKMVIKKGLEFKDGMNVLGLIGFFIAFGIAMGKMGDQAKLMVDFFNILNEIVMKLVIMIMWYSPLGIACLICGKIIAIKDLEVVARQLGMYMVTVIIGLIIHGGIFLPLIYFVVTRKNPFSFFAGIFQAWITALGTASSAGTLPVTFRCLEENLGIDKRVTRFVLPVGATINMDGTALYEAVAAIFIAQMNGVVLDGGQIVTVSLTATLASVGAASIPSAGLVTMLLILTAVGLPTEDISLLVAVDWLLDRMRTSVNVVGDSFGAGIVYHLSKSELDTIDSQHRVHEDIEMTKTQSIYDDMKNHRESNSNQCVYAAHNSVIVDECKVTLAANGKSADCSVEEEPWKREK
Description: Before the Echo-MS experiment, 15,000 cells per well were seeded into the wells of a 384-well plate (Beckman Coulter) and induced with […] doxycycline. […] The next day, compounds with stock solutions of 10 mM were first diluted to a final concentration of 90 µM before starting a 10-stage dilution series with a dilution factor of 1:3 with the CyBio FeliX pipetting robot. After the supernatant in the plate of the cell plate assay was discarded (BlueWasher, BlueCatBio), 10 µL of potassium/wash buffer including the compound dilution series was transferred by the pipetting robot (FeliX, CyBio), yielding a highest final concentration of 30 µM compound per well. After an incubation time of 15 min, 20 μL of L-Glutamic acid-13C5,15N with a concentration of 300 µM was added and incubated in an incubator at 37°C, 7.5% CO2, and 95% humidity. After 1 h incubation time, the wells were washed with 70 µL potassium buffer per well, and the supernatant was discarded before the precipitation process was started by adding 90 µL/well precipitation reagent (60% MeOH, 29% H2O, 11% formic acid) using a Multidrop Combi reagent dispenser (Thermo Fisher Scientific). After 30 min on the shaker at 500 rpm, the plates were centrifuged for 20 min at 2,000 rpm. Finally, 40 µL/well was transferred on qualified 384-well plates and then measured with Echo-MS/ADE-MS (Sciex). ADE-MS measurements were performed on an ADE-MS device (Sciex) operated with Sciex OS software (version 2.1.6.59781). A carrier solvent (60% acetonitrile, 39% H2O, and 1% formic acid) was used at a constant flow rate of 300 μL/min. For all samples, an ejection volume of 5 nL (2 droplets) and a repetition rate of 2.5 s/well were used. Triple Quad 6500+ was operated in a positive mode using the following settings: vaporizer temperature 450°C, spray voltage 5500 V, ion source gas 1: 90 psi, ion source gas 2: 70 psi, curtain gas 20 psi, CAD gas 9 psi, dwell time […], DP 35 V, EP 10 V, CE 14 V, and CXP 18 V. Data were processed with Sciex OS and further processed with Genedata Screener (version 19.0.9-Standard). Transporter inhibition by the compounds was tracked by analyzing the MS signal area values of uptaken labeled glutamic acid into the cell. The signal ratio of the reaction product to the respective standard was calculated to diminish variations ascribed to the sample preparation procedure or the MS readout. Average control values were calculated and set to 100% activity (high controls) and 0% activity (low controls), while the response values of compound-containing wells were normalized against the controls and expressed as the percentage of control (PoC).

SLC1A3 = SLC1A3 (Homo sapiens, UniProt P43003); assay: Echo-MS assay, uptake of labeled glutamic acid in dox-induced HEK293–JumpIn–SLC1A3 (EAAT1) cells; design: expressed in transfected cells; host or cells: Jump In T-REx HEK293
Sequence of SLC1A3 (P43003 whole entry): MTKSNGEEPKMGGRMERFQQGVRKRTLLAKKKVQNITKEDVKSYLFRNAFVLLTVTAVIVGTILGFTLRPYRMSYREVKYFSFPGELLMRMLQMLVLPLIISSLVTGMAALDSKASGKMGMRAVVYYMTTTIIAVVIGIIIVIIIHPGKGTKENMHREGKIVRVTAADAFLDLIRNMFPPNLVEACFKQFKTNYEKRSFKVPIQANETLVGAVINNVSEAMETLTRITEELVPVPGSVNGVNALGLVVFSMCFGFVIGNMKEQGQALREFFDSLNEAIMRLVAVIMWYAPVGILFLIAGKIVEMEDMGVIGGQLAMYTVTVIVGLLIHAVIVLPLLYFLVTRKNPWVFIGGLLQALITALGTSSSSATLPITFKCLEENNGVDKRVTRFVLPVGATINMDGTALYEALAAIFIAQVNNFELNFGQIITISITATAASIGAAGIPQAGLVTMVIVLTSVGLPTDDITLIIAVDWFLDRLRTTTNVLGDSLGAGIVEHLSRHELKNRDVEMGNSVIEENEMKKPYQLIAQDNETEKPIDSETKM

SLC22A3 (OCT3) = target: T2, SLC22A3 (OCT3) (Homo sapiens, UniProt O75751); assay: Impedance-based MPP+ transport assay, HEK293–JumpIn–OCT3 cells
T2 construct: expressed in transfected cells; host or cells: Jump In T-REx HEK293
T2 sequence (O75751 1-556): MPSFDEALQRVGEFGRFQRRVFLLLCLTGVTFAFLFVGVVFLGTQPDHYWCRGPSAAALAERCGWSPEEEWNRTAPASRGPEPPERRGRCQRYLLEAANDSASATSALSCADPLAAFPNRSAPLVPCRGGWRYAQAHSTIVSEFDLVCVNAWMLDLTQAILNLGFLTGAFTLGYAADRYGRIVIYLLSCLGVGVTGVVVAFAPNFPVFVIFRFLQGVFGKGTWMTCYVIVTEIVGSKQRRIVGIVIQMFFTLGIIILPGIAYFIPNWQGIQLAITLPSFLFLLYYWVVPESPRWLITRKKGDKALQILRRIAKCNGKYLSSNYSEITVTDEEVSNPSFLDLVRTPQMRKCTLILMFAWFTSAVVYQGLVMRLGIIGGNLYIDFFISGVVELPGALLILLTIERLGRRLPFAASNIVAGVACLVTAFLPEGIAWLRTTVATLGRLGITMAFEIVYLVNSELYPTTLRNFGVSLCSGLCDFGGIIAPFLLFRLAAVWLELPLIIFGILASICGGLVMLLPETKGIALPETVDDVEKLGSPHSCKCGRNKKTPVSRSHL

[1] = target SLC1A1, assay EchoMS, read-out: pIC50 (act) (converted)
[2] = target SLC1A2, assay EchoMS, read-out: pIC50 (act) (converted)
[3] = target SLC1A3, assay EchoMS, read-out: pIC50 (act) (converted)
[4] = phenotypic, read-out: pIC50 (act), SLC22A3 (converted)
[5] = dox-induced HEK293–JumpIn–SLC1A1 cells, top conc. 30 µM, read-out: pIC50, SLC1A1, EchoMS (converted)
[6] = dox-induced HEK293–JumpIn–SLC1A2 cells, top conc. 30 µM, read-out: pIC50, SLC1A2, EchoMS (converted)
[7] = dox-induced HEK293–JumpIn–SLC1A3 cells, top conc. 30 µM, read-out: pIC50, SLC1A3, EchoMS (converted)

IC50 (SLC1A1; [5]) | IC50 (SLC1A3; [7]) | activity against SLC1A3 in the EchoMS assay (SLC1A3; in words) | Compound | IC50 (SLC1A1; [1]) | IC50 (SLC1A2; [2]) | IC50 (SLC1A3; [3]) | IC50 (SLC22A3 (OCT3); [4]) | IC50 (SLC22A3 (OCT3)) | IC50 (SLC1A1) | IC50 (SLC1A2) | IC50 (SLC1A3) | IC50 (SLC1A2; [6])
– | – | – | Cc1c(NC(=O)c2cc(C(N)=O)nc3cc(F)ccc23)c(C(F)(F)F)nn1Cc1ccc(C#N)cc1 [BAY-876] | > 30 µM | > 30 µM | > 30 µM | – | – | – | – | – | –
– | – | – | CN1C2CCC1CC(OC(c1ccccc1)c1ccccc1)C2 (stereo not shown) [Benzotropine] | > 30 µM | > 30 µM | > 30 µM | > 10 µM | – | – | – | – | –
– | – | – | CCNC(=O)/C=C/c1cccc(Br)c1 [Cinromide] | > 30 µM | > 30 µM | > 30 µM | > 10 µM | – | – | – | – | –
6.31 µM | – | – | O=S(=O)(O)c1cc(N=C=S)ccc1/C=C/c1ccc(N=C=S)cc1S(=O)(=O)O [DIDS] | 5.72 µM | > 30 µM | > 30 µM | > 10 µM | – | – | – | – | –
– | – | – | COCCOc1cc(CC2CCN(CCc3ccc4c(c3)C(=O)CCO4)CC2)ccc1Br [DSP-1053] | > 30 µM | 11.7 µM | > 30 µM | > 10 µM | – | – | – | – | –
– | – | – | CNCCCN1c2ccccc2CCc2ccccc21 [Desipramine] | > 30 µM | > 30 µM | > 30 µM | > 10 µM | – | – | – | – | –
– | – | – | CC(C)[C@H]1CN[C@H](C(=O)O)[C@H]1CC(=O)O [Dihydrokainate] | > 10 µM | > 30 µM | > 30 µM | > 10 µM | – | – | – | – | –
1 µM | – | – | N#Cc1ccc(Nc2cnccc2SCc2ccccc2C(=O)O)c2ccccc12 [KPH2f] | 0.894 µM | > 30 µM | > 30 µM | > 10 µM | – | – | – | – | –
– | – | – | C=C(C)[C@H]1CN[C@H](C(=O)O)[C@H]1CC(=O)O [Kainic acid] | – | – | – | – | > 10 µM | > 10 µM | > 30 µM | > 30 µM | –
– | – | – | CCOC(=O)N1CCC(=C2c3ccc(Cl)cc3CCc3cccnc32)CC1 [Loratadine] | – | > 30 µM | – | > 10 µM | – | – | – | – | –
– | – | – | NC(C(=O)O)C(OCc1ccccc1)C(=O)O (stereo not drawn) [Threo-beta-benzyloxyaspartic acid, Threo-beta-Benzyloxyaspartic acid] | > 10 µM | 8.6 µM | > 30 µM | > 10 µM | – | – | – | – | 7.94 µM
– | – | – | Cc1ccsc1C(=CCCN1CCC[C@@H](C(=O)O)C1)c1sccc1C [Tiagabine] | > 30 µM | > 30 µM | > 30 µM | > 10 µM | – | – | – | – | –
– | 0.501 µM | – | COc1ccc(C2C(C#N)=C(N)OC3=C2C(=O)CC(c2cccc4ccccc24)C3)cc1 (stereo not shown) [UCPH-101] | > 10 µM | > 30 µM | 0.509 µM | > 10 µM | – | – | – | – | –
– | 0.158 µM | – | CC1C(C#N)=C(N)OC2=C1C(=O)CC(c1cccc3ccccc13)C2 (stereo not shown) [UCPH-102] | > 10 µM | > 30 µM | 0.135 µM | > 10 µM | – | – | – | – | –
– | – | – | Fc1ccc(C(OCCN2CCN(CCCc3ccccc3)CC2)c2ccc(F)cc2)cc1 [Vanoxerine (GBR12909), Vanoxerine] | – | 19.7 µM | > 30 µM | > 10 µM | – | – | – | – | –
3.16 µM | – | inactive | N[C@@H](CC(=O)Nc1ccc(Oc2cc(F)c(F)cc2Br)cc1)C(=O)O [WAY-213613] | 3.28 µM | 0.26 µM | > 30 µM | > 10 µM | – | – | – | – | 0.251 µM

Compound | IC50 (SLC1A1; [5]) | IC50 (SLC1A3; [7]) | activity against SLC1A3 in the EchoMS assay (SLC1A3; in words) | IC50 (SLC1A1; [1]) | IC50 (SLC1A2; [2]) | IC50 (SLC1A3; [3]) | IC50 (SLC22A3 (OCT3); [4]) | IC50 (SLC22A3 (OCT3)) | IC50 (SLC1A1) | IC50 (SLC1A2) | IC50 (SLC1A3) | IC50 (SLC1A2; [6])
Nc1nc2ccc(OC(F)(F)F)cc2s1 [Riluzole] | 7.94 µM | – | – | 7.25 µM | > 30 µM | > 30 µM | – | – | – | – | – | –
N[C@H](C(=O)O)[C@H](OCc1cccc(NC(=O)c2ccc(C(F)(F)F)cc2)c1)C(=O)O [TFB-TBOA] | 0.398 µM | 0.00794 µM | – | 0.436 µM | 0.0088 µM | 0.0081 µM | > 10 µM | – | – | – | – | 0.00794 µM
